Results: patent US20260070922A1, “PYRAZOLE AND IMIDAZOLE DERIVATIVES AS DUAL OREXIN AND KAPPA-OPIOID RECEPTORS MODULATORS COMPOSITION, METHODS FOR TREATING NEUROLOGICAL AND PSYCHIATRIC DISORDERS” (HAGER BIOSCIENCES, LLC, priority 2022, published 2026)

What was measured:
[1] = molecular target: T1, human orexin-2 receptor (OX2R) (Homo sapiens, UniProt O43614); assay: In vitro orexin antagonism assay: intracellular calcium measurement (FLIPR), orexin-A 3 nM as agonist; format: cell-based; settings: for inhibition at 1 µM: read-out: OX2R, % Inh. @ 1 uM; for IC50: first value of IC50/Kb cell; for Kb: second value of IC50/Kb cell
T1 construct: expressed in transfected cells; host or cells: CHO cells (G418 selection)
T1 sequence (O43614 1-444): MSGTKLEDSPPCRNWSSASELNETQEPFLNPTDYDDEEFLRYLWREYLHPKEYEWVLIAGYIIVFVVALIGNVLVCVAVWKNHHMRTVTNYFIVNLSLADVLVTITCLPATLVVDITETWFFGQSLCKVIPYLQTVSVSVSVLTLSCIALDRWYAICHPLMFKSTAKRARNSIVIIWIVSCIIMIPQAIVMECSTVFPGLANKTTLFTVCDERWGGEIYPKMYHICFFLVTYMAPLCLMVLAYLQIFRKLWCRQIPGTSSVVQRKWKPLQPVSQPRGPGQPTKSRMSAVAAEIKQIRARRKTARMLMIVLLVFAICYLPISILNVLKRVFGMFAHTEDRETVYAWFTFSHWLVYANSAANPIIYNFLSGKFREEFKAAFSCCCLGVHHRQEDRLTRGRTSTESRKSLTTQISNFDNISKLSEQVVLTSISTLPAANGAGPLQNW
Experimental: Antagonistic activities on both orexin receptors have been measured for each example compound using the following procedure:
(§1) In Vitro Orexin Antagonism Measurement Assay: Intracellular Calcium Measurements:
(§2) Chinese hamster ovary (CHO) cells expressing the human […] and the human orexin-2 receptor, respectively, are grown in culture medium (Ham F-12 with L-Glutamine) containing 300 μg/mL G418, 100 U/mL penicillin, 100 μg/mL streptomycin and 10% heat inactivated fetal calf serum (FCS). The cells are seeded at 20,000 cells/well into 384-well black clear bottom sterile plates (Greiner). The seeded plates are incubated overnight at 37° C. in 5% 002. Human orexin-A as an agonist is prepared as 1 mM stock solution in MeOH: water (1:1), diluted in HBSS containing 0.1% bovine serum albumin (BSA), NaHCO3: 0.375 g/L and 20 mM HEPES for use in the assay at a final concentration of 3 nM.
(§3) Antagonists are prepared as 10 mM stock solution in DMSO, then diluted in 384-well plates using DMSO followed by a transfer of the dilutions into in HBSS containing 0.1% bovine serum albumin (BSA), NaHCO3: 0.375 g/L and 20 mM HEPES. On the day of the assay, 50 μL of staining buffer (HBSS containing 1% FCS, 20 mM HEPES, NaHCO3: 0.375 g/L, 5 mM probenecid (Sigma) and 3 μM of the fluorescent calcium indicator fluo-4 AM (1 mM stock solution in DMSO, containing 10% pluronic) is added to each well. The 384-well cell-plates are incubated for 50 min at 37° C. in 5% CO2 followed by equilibration at RT for 30 min before measurement.
(§4) Within the Fluorescent Imaging Plate Reader (FLIPR Tetra, Molecular Devices), antagonists are added to the plate in a volume of 10 μL/well, incubated for 120 min and finally 10 μL/well of agonist is added. Fluorescence is measured for each well at 1 second intervals, and the height of each fluorescence peak is compared to the height of the fluorescence peak induced by 3 nM orexin-A with vehicle in place of antagonist. The IC50 value (the concentration of compound needed to inhibit 50% of the agonistic response) is determined and may be normalized using the obtained IC50 value of an on-plate reference compound. Optimized conditions were achieved by adjustment of pipetting speed and cell splitting regime. The calculated IC50values may fluctuate depending on the daily cellular assay performance. Fluctuations of this kind are known to those skilled in the art. In the case where IC50values have been determined several times for the same compound, the geometric mean has been given.

[2] = molecular target: T2, Orexin type 1 (OX1R) receptor (Homo sapiens, UniProt O43613); assay: as above; format: cell-based; settings: for inhibition at 1 µM: read-out: OX1R, % Inh. @ 1 uM; for IC50: first value of IC50/Kb cell; for Kb: second value of IC50/Kb cell
T2 construct: expressed in transfected cells; host or cells: CHO cells (G418 selection)
T2 sequence (O43613 1-425): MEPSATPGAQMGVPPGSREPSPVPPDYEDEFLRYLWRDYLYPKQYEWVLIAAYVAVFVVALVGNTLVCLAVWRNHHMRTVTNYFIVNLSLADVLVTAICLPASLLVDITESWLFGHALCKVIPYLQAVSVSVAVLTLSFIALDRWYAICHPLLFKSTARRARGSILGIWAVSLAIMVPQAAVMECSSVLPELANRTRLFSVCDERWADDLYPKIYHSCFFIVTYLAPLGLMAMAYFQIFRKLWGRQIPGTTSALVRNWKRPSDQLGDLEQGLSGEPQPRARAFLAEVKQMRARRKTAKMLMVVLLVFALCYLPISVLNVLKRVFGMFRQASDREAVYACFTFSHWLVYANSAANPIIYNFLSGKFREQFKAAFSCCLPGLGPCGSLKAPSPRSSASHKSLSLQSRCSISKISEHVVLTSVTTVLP
Experimental: as §1, §2, §3
as §4, with “art.” for “art. In the case where IC50values have been determined several times for the same compound, the geometric mean has been given.”

Row | SMILES | inhibition at 1 µM [1] [%] | inhibition at 1 µM [2] [%] | IC50 [1] [nM] | Kb [1] [nM] | IC50 [2] [nM] | Kb [2] [nM] | OX2R, % Inh. @ 1 uM [1] [%] | OX1R, % Inh. @ 1 uM [2] [%]
1 | C[C@@]1(COc2cnc(C(F)(F)F)cn2)CCCN1C(=O)c1nn2c(c1-c1ccccc1)COCC2 [Example 162] | 0 | 36 |  |  |  |  |  | 
2 | O=C(c1c(-c2ccccc2)nc2cc(C(F)(F)F)ccn12)N1CCC[C@H]1Cn1cc(-c2ccccn2)cn1 [Example 79] | 62 | 43 | 77 | 13 |  |  |  | 
3 | O=C(c1nc2ccccn2c1-c1ccccn1)N1CCC[C@H]1Cn1ccc(-c2ccccn2)n1 [Example 180] | 27 | 97 |  |  | 17 | 4 |  | 
4 | O=C(c1nn2c(c1-c1ccccn1)COCC2)N1CCC[C@H]1COc1ccc(C(F)(F)F)cn1 [Example 223] |  |  |  |  | 5 | 1 | 21 | 97
5 | C[C@@]1(COc2cnc(C(F)(F)F)cn2)CCCN1C(=O)c1c(-c2ccccn2)nn2ccccc12 [Example 164] | 20 | 84 |  |  | 305 | 64 |  | 
6 | O=C(c1nn2ccccc2c1-c1ccccc1)N1CCC[C@H]1CNc1ccc(C(F)(F)F)cn1 [Example 29] | 84.1 | 99.5 | 35 | 5 | 5 | 1 |  | 
7 | O=C(c1nc2ccccn2c1-c1ccccn1)N1CCC[C@H]1Cc1nc(-c2ccc(F)cn2)no1 [Example 210] | 12 | 85 |  |  | 190 | 40 |  | 
8 | O=C(c1c(-c2ccccn2)nn2ccccc12)N1CCC[C@H]1Cn1cc(-c2ccc(F)cn2)cn1 [Example 206] | 83 | 67 | 62 | 11 |  |  |  | 
9 | O=C(c1nn2c(c1-c1ccccn1)COCC2)N1CCC[C@H]1Cn1cc(-c2ccccn2)cn1 [Example 213] | 33 | 77 |  |  | 220 | 47 |  | 
10 | O=C(c1nn2c(c1-c1ccccn1)COCC2)N1CCC[C@H]1Cn1ccc(-c2ccc(F)cn2)n1 [Example 212] |  |  |  |  | 35 | 7 | 46 | 96
11 | O=C(c1c(-c2ccccc2)nc2ncccn12)N1CCC[C@H]1CNc1ccc(F)cn1 [Example 31] | -3.4 | 4.7 |  |  |  |  |  | 
12 | O=C(c1c(-c2ccccc2F)nn2ccccc12)N1CC[C@H]1Cn1ccc(-c2ccc(F)cc2)n1 [Example 99] | 61 | 59 | 270 | 46 | 440 | 92 |  | 
13 | O=C(c1nn2c(c1-c1ccccn1)CCOC2)N1CCC[C@H]1Cc1nc(-c2ccc(F)cn2)no1 [Example 222] | 12 | 55 |  |  |  |  |  | 

More lines, main results first:

Row | inhibition at 1 µM [1] [%] | inhibition at 1 µM [2] [%] | IC50 [1] [nM] | Kb [1] [nM] | IC50 [2] [nM] | Kb [2] [nM] | SMILES | OX2R, % Inh. @ 1 uM [1] [%] | OX1R, % Inh. @ 1 uM [2] [%]
14 | 45 | 40 |  |  |  |  | O=C(c1c(-c2ccccc2)nc2ccc(F)cn12)N1CCC[C@H]1Cn1cc(-c2ccccn2)cn1 [Example 74] |  | 
15 | 42 | 100 |  |  | 6 | 1 | O=C(c1nn2c(c1-c1ccccc1)OCCC2)N1CCC[C@H]1COc1ccc(C(F)(F)F)cn1 [Example 142] |  | 
16 | 28.3 | 93.1 |  |  | 9 | 2 | O=C(c1c(-c2ccc(F)cc2)nn2ccccc12)N1CCC[C@H]1COc1ccc(C(F)(F)F)cn1 [Example 43] |  | 
17 | 39.4 | 99.5 |  |  | 14 | 3 | O=C(c1c(-c2ccccc2)nc2ccccn12)N1CCCC[C@H]1CNc1ccc(C(F)(F)F)cn1 [Example 26] |  | 
18 | 46.5 | 88.1 |  |  | 80 | 17 | O=C(c1c(-c2ccccc2)nc2ccc(F)cn12)N1CCC[C@H]1COc1ccc(C(F)(F)F)cn1 [Example 51] |  | 
19 | 12 | 99 |  |  | 8 | 2 | O=C(c1nc2ccccn2c1-c1ccccn1)N1CCC[C@H]1COc1ccc(C(F)(F)F)cn1 [Example 179] |  | 
